# Experimental data taken from PMC8460535, “Novel serotonin 5-HT2A receptor antagonists derived from 4-phenylcyclohexane-5-spiro-and 5-methyl-5-phenyl-hydantoin, for use as potential antiplatelet agents” (Pharmacological Reports, 2021).
# Where two headings read alike, the source gives them in different places. Marks after values point to notes of the source that are not given here.
# Legend:
# [1] = biological target: 5-HT2A receptor; settings: cited from earlier work
# [2] = test system: whole rat blood aggregation induced by 5-HT and collagen; assay: In vitro whole rat blood aggregation induced by 5-HT and sub-threshold collagen; format: cell-based; settings: 5-HT 30 μM and collagen 0.8 μg/ml, read-out: b (5-HT + collagen) IC50
# Protocol: (§1) In vitro aggregation assays were performed using freshly drawn whole rat blood with a Multiplate platelet function analyzer (Roche Diagnostic), the five-channel aggregometer based on measurements of electric impedance. Blood was collected from carotid arteries with a hirudin blood tube (Roche Diagnostic). 300 μl of hirudin anticoagulated blood was mixed with 300 μl prewarmed isotonic saline solution containing studied compound or vehicle (deionized water or DMSO 0.1%) and preincubated for 3 min at 37 °C with continuous stirring. Aggregation was induced by adding collagen (Hyphen-Biomed, France) (final concentration 1.6 µg/ml), 5-HT (30 µM) and sub-threshold concentration of collagen (0.8 µg/ml), 5-HT (6 µM) and sub-threshold concentration of ADP (ADP test, Roche Diagnostic), (1.6 µM). The aggregation process was recorded for 6 min. Ketanserin (ketanserin ( +) tartrate salt, Sigma-Aldrich, Germany), sarpogrelate (sarpogrelate hydrochloride, Sigma-Aldrich, Germany), and aspirin (Tocris, UK) were used as reference compounds. The Multiplate software analyzed the area under the curve (AUC) of the clotting process of each measurement and calculated the mean values. Each concentration of studied compounds was tested at least three times. The exact sample size (n value) is presented on Figs. 2–4. Concentration-inhibition curves were constructed and analyzed by non-linear curve fitting using GraphPad Prism 6.0 (GraphPad Software Inc., San Diego, CA, USA).
# [3] = test system: whole rat blood aggregation induced by collagen; assay: In vitro whole rat blood aggregation induced by collagen (Multiplate); format: cell-based; settings: collagen 1.6 μg/ml, na = not active
# Protocol: as §1
# [4] = biological target: serotonin 5-HT1A receptor; set-up: method as in Czopek et al., Acta Pol. Pharm. 73 (2016) 1545–1554; settings: ref Czopek et al., Acta Pol. Pharm. 73 (2016) 1545–1554; read-out: Ki ± SEM [nM] 5-HT1A; cited from earlier work
# [5] = biological target: dopamine D2 receptor; set-up: method as in Czopek et al., Acta Pol. Pharm. 73 (2016) 1545–1554; settings: ref Czopek et al., Acta Pol. Pharm. 73 (2016) 1545–1554; read-out: Ki ± SEM [nM] D2; cited from earlier work
# [6] = biological target: T1, human 5-HT2A receptor (Homo sapiens, UniProt P28223); assay: 5-HT2A receptor radioligand binding assay ([3H]-ketanserin, CHO-K1 membranes); settings: radioligand binding, compound 13 vs compound 3
# T1 construct: purchased PerkinElmer; host or cells: CHO-K1 cells, stably transfected
# T1 sequence (P28223 whole entry): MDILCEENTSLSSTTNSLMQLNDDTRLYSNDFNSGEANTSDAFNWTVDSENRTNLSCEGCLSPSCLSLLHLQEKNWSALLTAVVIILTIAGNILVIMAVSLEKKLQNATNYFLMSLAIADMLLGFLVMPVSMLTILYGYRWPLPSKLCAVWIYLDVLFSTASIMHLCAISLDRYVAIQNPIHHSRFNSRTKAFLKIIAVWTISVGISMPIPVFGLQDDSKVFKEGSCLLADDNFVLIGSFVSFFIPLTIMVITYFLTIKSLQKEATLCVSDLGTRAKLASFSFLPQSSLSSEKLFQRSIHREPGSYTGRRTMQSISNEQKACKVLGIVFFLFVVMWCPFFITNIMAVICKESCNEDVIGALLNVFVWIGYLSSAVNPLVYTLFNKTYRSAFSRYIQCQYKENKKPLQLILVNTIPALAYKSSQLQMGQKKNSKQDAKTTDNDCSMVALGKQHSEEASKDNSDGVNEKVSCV
# Protocol: Stock solutions of tested compounds (10 mM) were prepared in DMSO. […] Each compound was tested in eight concentrations from 10^–5 to 10^–12 M (final concentration).
# Radioligand binding was performed using membranes from CHO-K1 cells stably transfected with the human 5-HT2A receptor (PerkinElmer). All assays were carried out in duplicates. Data were fitted to a one-site curve-fitting equation with Prism 6 (GraphPad Software) and Ki values were estimated from the Cheng − Prusoff equation. The full description of this assay is in Supplementary material.
# Mianserin (10 μM) was used to define nonspecific binding. […] The reaction was terminated by rapid filtration through GF/B filter mate presoaked with 0.5% polyethyleneimine for 30 minutes. Ten rapid washes with 200 µl 50 mM Tris buffer (4°C, pH 7.4) were performed using automated harvester system Harvester-96 MACH III FM (Tomtec). […] Radioactivity was counted in MicroBeta2 scintillation counter (PerkinElmer).
# [7] = biological target: T2, 5-HT2A receptors in rat aorta (Rattus norvegicus, UniProt P14842); settings: already published; cited from earlier work
# T2 construct: Isolated rat aorta was used to determine the antagonistic activity of studied compounds for 5HT2A-receptors; from tissue; host or cells: aortic rings of male Wistar rats, denuded of the endothelium
# T2 sequence (P14842 whole entry): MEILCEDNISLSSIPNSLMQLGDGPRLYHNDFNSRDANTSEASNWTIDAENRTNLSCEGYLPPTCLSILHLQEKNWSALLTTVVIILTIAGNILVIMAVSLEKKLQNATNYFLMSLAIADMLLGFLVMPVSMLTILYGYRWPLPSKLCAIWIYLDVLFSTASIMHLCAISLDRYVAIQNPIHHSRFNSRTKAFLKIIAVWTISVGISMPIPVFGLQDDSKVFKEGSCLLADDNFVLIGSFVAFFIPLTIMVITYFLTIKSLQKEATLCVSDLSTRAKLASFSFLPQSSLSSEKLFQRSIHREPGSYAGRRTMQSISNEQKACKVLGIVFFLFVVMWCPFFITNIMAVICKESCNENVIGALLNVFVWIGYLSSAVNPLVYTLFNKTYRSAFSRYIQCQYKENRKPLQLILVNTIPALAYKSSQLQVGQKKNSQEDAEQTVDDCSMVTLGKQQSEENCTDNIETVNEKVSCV
# [8] = test system: whole rat blood aggregation induced by 5-HT and ADP; assay: In vitro whole rat blood aggregation induced by 5-HT and sub-threshold ADP; format: cell-based; settings: 5-HT 6 μM and ADP 1.6 μM, na = not active, read-out: c (5-HT + ADP) IC50
# Protocol: as §1
# [9] = biological target: T1, human 5-HT2A receptor; set-up: method as in PMID 29111111; settings: cells expressing human 5-HT2A receptors; already published; cited from earlier work
# [10] = test system: whole rat blood aggregation induced by 5-HT and ADP; set-up: method as in PMID 29111111; settings: 5-HT 6 μM and ADP 1.6 μM, already published, read-out: c (5-HT + ADP) IC50; cited from earlier work
Compound,"Ki ([1]; 5-HT2A receptors, previous studies, read-out: Ki (5-HT2A) of earlier hydantoin leads)",IC50 [2],IC50 [3],Ki [4],Ki [5],fold higher affinity for 5-HT2A compared to compound 3 [6],pKB ± SEM a [7],IC50 [8],"Ki ([1]; Table S1, ref Czopek et al., Acta Pol. Pharm. 73 (2016) 1545–1554, read-out: Ki ± SEM [nM] 5-HT2A)","Ki ([1]; serotonin 5-HT2A receptors, already published and re-printed for comparison, read-out: Ki [nM] ± SEM)",pKB ± SEM b [9],IC50 [10]
"O=C1NC2(CCC(c3ccccc3)CC2)C(=O)N1CCCN1CCN(c2ccccc2)CC1 (stereo not shown) [Compound 13, 8-phenyl-3-(3-(4-phenylpiperazin-1-yl)propyl)-1,3-diazaspiro[4.5]decane-2,4-dione]",50 nM,53.3 ± 4.6 µM,27.3 ± 3.8 µM,1670 ± 75 nM,> 10000 nM,over 25 fold,7.665 ± 0.03^a,9.9 ± 2.5 µM,–,–,–,–
"O=C1NC2(CCC(c3ccccc3)CC2)C(=O)N1CCCN1CCN(c2cccc(Cl)c2)CC1 (stereo not shown) [Compound 14, 3-(3-(4-(3-chlorophenyl)piperazin-1-yl)propyl)-8-phenyl-1,3-diazaspiro[4.5]decane-2,4-dione]",–,75.8 ± 16.6 µM,–,5210 ± 268 nM,> 10000 nM,–,7.110 ± 0.05^a,93.8 ± 9.4 µM,56 ± 7 nM,24 ± 2.5 nM,–,–
COc1cccc(CCc2ccccc2OCC(CN(C)C)OC(=O)CCC(=O)O)c1 (stereo not shown) [Sarpogrelate],–,–,66.8 ± 12.9 µM,–,–,–,8.220 ± 0.08^b,–,–,–,7.296 ± 0.04^b,22.7 ± 2.1 µM
